Key:
[1] = biological target: Tyrosine-protein kinase JAK2 (Homo sapiens) (UniProt O60674); conditions: Compound concentration 1000.0 nM
[2] = biological target: 1-phosphatidylinositol 3-phosphate 5-kinase (Homo sapiens) (UniProt Q9Y2I7); conditions: Compound concentration 1000.0 nM
[3] = biological target: Serine/threonine-protein kinase Nek9 (Homo sapiens) (UniProt Q8TD19); conditions: Compound concentration 1000.0 nM
[4] = biological target: Serine/threonine-protein kinase Nek2 (Homo sapiens) (UniProt P51955); conditions: Compound concentration 1000.0 nM
[5] = biological target: Serine/threonine-protein kinase NLK (Homo sapiens) (UniProt Q9UBE8); conditions: Compound concentration 1000.0 nM
[6] = biological target: Mitogen-activated protein kinase kinase kinase 5 (Homo sapiens) (UniProt Q99683); conditions: Compound concentration 1000.0 nM
[7] = biological target: LIM domain kinase 1 (Homo sapiens) (UniProt P53667); conditions: Compound concentration 1000.0 nM
[8] = biological target: T1, Muscarinic acetylcholine receptor M1 (Homo sapiens) (UniProt P11229); conditions: Compound concentration 10.0 uM
T1 sequence (whole entry): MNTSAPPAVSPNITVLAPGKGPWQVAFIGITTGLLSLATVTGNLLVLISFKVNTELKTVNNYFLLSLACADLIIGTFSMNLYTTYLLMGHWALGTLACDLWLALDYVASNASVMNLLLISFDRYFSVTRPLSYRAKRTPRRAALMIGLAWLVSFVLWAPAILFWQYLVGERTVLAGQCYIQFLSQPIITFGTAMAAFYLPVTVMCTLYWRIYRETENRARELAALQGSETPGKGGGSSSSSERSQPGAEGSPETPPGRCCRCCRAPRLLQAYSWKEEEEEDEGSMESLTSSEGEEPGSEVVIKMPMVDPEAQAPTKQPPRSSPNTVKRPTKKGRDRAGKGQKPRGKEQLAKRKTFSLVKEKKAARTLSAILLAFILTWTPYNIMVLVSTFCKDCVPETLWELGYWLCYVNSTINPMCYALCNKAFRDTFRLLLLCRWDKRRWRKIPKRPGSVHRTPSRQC

[9] = biological target: Serine/threonine-protein kinase VRK2 (Homo sapiens) (UniProt Q86Y07); conditions: Compound concentration 1000.0 nM
[10] = biological target: Serine/threonine-protein kinase Nek4 (Homo sapiens) (UniProt P51957); conditions: Compound concentration 1000.0 nM
[11] = biological target: Proto-oncogene tyrosine-protein kinase ROS (Homo sapiens) (UniProt P08922); conditions: Compound concentration 1000.0 nM
[12] = biological target: Protein kinase C iota type (Homo sapiens) (UniProt P41743); conditions: Compound concentration 1000.0 nM
[13] = biological target: MAP/microtubule affinity-regulating kinase 3 (Homo sapiens) (UniProt P27448); conditions: Compound concentration 1000.0 nM
[14] = biological target: Ephrin type-B receptor 6 (Homo sapiens) (UniProt O15197); conditions: Compound concentration 1000.0 nM
[15] = biological target: Ribosomal protein S6 kinase alpha-2 (Homo sapiens) (UniProt Q15349); conditions: Compound concentration 1000.0 nM
[16] = biological target: Calcium/calmodulin-dependent protein kinase kinase 2 (Homo sapiens) (UniProt Q96RR4); conditions: Compound concentration 1000.0 nM
[17] = system: Receptor-type tyrosine-protein kinase FLT3 (Homo sapiens), P36888 [UNDEFINED MUTATION]; conditions: Compound concentration 1000.0 nM
[18] = biological target: SRSF protein kinase 2 (Homo sapiens) (UniProt P78362); conditions: Compound concentration 1000.0 nM
[19] = biological target: Bone morphogenetic protein receptor type-1A (Homo sapiens) (UniProt P36894); conditions: Compound concentration 1000.0 nM
[20] = biological target: cAMP-dependent protein kinase catalytic subunit alpha (Homo sapiens) (UniProt P17612); conditions: Compound concentration 1000.0 nM
[21] = system: Epidermal growth factor receptor (Homo sapiens), P00533 [UNDEFINED MUTATION]; conditions: Compound concentration 1000.0 nM
[22] = biological target: ALK tyrosine kinase receptor (Homo sapiens) (UniProt Q9UM73); conditions: Compound concentration 1000.0 nM
[23] = biological target: Mitogen-activated protein kinase kinase kinase 6 (Homo sapiens) (UniProt O95382); conditions: Compound concentration 1000.0 nM
[24] = system: Mast/stem cell growth factor receptor Kit (Homo sapiens), P10721 [V559D,V654A]; conditions: Compound concentration 1000.0 nM
[25] = biological target: STE20-like serine/threonine-protein kinase (Homo sapiens) (UniProt Q9H2G2); conditions: Compound concentration 1000.0 nM
[26] = biological target: Serine/threonine-protein kinase pim-3 (Homo sapiens) (UniProt Q86V86); conditions: Compound concentration 1000.0 nM
[27] = system: Tyrosine-protein kinase ABL1 (Homo sapiens), P00519 [T315I]; conditions: Compound concentration 1000.0 nM
[28] = biological target: Insulin-like growth factor 1 receptor (Homo sapiens) (UniProt P08069); conditions: Compound concentration 1000.0 nM
[29] = biological target: Vascular endothelial growth factor receptor 1 (Homo sapiens) (UniProt P17948); conditions: Compound concentration 1000.0 nM
[30] = biological target: SNF-related serine/threonine-protein kinase (Homo sapiens) (UniProt Q9NRH2); conditions: Compound concentration 1000.0 nM
[31] = biological target: Serine/threonine-protein kinase SIK2 (Homo sapiens) (UniProt Q9H0K1); conditions: Compound concentration 1000.0 nM
[32] = system: Epidermal growth factor receptor (Homo sapiens), P00533 [UNDEFINED MUTATION]; conditions: Compound concentration 1000.0 nM; remark: listed apart in the source
[33] = biological target: BDNF/NT-3 growth factors receptor (Homo sapiens) (UniProt Q16620); conditions: Compound concentration 1000.0 nM
[34] = biological target: Non-receptor tyrosine-protein kinase TNK1 (Homo sapiens) (UniProt Q13470); conditions: Compound concentration 1000.0 nM
[35] = biological target: Tyrosine-protein kinase HCK (Homo sapiens) (UniProt P08631); conditions: Compound concentration 1000.0 nM
[36] = biological target: Cyclin-dependent kinase 17 (Homo sapiens) (UniProt Q00537); conditions: Compound concentration 1000.0 nM
[37] = biological target: Serine/threonine-protein kinase Nek7 (Homo sapiens) (UniProt Q8TDX7); conditions: Compound concentration 1000.0 nM
[38] = biological target: Rho-associated protein kinase 1 (Homo sapiens) (UniProt Q13464); conditions: Compound concentration 1000.0 nM

Chain of Epidermal growth factor receptor (Homo sapiens), P00533 [UNDEFINED MUTATION] (P00533 whole entry, looked up, change not shown): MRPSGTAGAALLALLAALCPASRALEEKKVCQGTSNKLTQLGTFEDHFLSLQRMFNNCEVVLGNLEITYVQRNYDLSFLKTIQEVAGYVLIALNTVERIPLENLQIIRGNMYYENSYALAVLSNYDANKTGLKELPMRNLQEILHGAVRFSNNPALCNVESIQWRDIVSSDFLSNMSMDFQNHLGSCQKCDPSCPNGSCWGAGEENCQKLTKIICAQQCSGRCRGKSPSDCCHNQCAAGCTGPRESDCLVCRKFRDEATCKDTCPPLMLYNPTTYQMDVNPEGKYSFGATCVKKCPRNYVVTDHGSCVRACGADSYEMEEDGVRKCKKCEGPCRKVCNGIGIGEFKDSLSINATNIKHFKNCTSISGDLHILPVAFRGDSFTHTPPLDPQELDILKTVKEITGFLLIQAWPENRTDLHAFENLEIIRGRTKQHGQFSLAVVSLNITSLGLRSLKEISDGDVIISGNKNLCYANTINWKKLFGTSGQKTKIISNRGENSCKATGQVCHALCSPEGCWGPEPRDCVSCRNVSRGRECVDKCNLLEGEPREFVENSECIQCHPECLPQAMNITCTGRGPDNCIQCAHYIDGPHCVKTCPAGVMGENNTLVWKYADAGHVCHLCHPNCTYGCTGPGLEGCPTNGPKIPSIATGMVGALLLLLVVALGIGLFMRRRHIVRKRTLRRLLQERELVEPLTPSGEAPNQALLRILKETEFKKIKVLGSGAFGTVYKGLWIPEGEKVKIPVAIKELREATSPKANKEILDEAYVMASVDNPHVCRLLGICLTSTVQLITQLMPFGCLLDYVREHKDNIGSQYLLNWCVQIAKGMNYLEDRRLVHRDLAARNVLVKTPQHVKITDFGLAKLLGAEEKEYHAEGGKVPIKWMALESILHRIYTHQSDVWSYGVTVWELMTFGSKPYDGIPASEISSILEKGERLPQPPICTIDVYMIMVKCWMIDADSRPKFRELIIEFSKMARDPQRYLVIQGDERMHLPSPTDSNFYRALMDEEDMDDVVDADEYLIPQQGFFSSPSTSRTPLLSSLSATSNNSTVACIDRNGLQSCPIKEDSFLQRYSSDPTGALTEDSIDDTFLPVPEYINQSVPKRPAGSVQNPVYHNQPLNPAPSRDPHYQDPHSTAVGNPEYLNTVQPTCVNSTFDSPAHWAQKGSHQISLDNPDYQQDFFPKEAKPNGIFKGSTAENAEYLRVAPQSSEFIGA
Chain of Serine/threonine-protein kinase Nek7 (Homo sapiens) (Q8TDX7 whole entry, looked up): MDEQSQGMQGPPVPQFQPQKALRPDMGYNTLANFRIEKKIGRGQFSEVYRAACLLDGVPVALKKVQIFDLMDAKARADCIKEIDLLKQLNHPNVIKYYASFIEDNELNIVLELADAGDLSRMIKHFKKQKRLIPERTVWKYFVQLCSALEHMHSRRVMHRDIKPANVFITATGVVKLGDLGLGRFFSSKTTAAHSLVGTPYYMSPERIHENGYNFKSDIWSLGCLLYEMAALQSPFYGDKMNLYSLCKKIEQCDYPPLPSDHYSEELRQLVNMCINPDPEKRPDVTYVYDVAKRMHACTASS
Chain of Serine/threonine-protein kinase Nek9 (Homo sapiens) (Q8TD19 whole entry): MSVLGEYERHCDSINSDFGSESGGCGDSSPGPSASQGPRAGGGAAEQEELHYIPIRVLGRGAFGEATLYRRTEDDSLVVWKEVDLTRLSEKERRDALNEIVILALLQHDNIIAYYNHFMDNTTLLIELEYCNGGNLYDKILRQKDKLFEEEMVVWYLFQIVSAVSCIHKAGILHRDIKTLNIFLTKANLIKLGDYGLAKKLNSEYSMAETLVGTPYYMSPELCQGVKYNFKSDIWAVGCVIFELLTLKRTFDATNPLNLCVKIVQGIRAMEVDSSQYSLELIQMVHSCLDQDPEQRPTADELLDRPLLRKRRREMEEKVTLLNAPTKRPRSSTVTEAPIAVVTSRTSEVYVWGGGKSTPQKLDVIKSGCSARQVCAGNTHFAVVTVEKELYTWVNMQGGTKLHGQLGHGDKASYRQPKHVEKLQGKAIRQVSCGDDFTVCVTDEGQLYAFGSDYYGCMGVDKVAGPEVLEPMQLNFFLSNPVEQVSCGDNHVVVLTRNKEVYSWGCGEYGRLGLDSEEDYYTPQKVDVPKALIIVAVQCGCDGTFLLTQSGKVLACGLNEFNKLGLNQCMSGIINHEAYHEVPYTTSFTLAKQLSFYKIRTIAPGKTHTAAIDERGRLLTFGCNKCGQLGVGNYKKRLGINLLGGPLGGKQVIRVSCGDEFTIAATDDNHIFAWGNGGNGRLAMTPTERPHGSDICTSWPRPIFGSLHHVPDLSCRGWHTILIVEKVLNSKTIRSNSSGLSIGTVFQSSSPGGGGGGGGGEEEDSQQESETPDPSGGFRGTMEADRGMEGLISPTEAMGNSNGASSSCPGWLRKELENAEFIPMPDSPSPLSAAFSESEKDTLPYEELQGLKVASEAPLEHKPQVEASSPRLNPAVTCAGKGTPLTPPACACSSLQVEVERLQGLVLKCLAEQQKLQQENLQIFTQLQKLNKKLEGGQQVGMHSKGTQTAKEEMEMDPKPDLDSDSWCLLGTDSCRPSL
Chain of Serine/threonine-protein kinase Nek4 (Homo sapiens) (P51957 whole entry, looked up): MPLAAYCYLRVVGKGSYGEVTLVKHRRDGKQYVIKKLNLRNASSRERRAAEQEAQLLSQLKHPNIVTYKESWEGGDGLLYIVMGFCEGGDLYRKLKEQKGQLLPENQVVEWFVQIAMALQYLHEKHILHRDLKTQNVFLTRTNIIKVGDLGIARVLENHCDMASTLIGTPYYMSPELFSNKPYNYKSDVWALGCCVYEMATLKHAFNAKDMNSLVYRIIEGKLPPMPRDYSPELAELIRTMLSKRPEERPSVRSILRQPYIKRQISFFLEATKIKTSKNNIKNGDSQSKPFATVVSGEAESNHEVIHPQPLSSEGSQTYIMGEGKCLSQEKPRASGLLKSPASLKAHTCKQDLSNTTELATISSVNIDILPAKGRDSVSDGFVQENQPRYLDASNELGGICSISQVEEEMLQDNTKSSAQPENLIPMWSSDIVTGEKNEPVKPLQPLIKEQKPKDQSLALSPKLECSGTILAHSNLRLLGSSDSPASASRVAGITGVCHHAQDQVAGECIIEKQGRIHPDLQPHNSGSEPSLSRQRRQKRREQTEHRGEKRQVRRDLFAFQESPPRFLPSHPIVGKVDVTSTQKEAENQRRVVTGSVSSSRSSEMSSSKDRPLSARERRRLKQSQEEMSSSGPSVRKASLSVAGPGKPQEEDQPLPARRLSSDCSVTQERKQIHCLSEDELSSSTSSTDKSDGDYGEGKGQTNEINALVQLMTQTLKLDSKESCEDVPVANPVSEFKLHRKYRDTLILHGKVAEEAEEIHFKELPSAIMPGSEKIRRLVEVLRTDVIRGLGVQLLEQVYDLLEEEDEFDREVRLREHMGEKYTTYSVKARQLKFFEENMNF
Chain of LIM domain kinase 1 (Homo sapiens) (P53667 whole entry, looked up, the tested form may be a part): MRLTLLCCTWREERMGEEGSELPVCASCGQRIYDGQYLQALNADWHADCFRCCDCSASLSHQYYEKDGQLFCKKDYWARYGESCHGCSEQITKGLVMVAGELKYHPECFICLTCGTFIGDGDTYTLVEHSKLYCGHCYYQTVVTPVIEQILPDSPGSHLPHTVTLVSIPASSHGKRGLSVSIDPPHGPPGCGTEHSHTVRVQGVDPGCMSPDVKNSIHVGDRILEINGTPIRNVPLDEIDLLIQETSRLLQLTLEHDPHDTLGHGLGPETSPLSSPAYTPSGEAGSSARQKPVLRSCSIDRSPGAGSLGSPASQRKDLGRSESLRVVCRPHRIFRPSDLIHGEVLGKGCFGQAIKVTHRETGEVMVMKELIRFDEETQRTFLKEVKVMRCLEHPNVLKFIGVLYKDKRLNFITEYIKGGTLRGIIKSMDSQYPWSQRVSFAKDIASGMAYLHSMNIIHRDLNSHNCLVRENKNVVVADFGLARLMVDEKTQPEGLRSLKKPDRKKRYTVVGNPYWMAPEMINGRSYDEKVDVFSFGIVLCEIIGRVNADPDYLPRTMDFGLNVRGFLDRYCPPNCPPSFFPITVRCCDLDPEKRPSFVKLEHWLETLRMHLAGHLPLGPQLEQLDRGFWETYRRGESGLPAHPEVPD
Chain of Serine/threonine-protein kinase SIK2 (Homo sapiens) (Q9H0K1 whole entry, looked up): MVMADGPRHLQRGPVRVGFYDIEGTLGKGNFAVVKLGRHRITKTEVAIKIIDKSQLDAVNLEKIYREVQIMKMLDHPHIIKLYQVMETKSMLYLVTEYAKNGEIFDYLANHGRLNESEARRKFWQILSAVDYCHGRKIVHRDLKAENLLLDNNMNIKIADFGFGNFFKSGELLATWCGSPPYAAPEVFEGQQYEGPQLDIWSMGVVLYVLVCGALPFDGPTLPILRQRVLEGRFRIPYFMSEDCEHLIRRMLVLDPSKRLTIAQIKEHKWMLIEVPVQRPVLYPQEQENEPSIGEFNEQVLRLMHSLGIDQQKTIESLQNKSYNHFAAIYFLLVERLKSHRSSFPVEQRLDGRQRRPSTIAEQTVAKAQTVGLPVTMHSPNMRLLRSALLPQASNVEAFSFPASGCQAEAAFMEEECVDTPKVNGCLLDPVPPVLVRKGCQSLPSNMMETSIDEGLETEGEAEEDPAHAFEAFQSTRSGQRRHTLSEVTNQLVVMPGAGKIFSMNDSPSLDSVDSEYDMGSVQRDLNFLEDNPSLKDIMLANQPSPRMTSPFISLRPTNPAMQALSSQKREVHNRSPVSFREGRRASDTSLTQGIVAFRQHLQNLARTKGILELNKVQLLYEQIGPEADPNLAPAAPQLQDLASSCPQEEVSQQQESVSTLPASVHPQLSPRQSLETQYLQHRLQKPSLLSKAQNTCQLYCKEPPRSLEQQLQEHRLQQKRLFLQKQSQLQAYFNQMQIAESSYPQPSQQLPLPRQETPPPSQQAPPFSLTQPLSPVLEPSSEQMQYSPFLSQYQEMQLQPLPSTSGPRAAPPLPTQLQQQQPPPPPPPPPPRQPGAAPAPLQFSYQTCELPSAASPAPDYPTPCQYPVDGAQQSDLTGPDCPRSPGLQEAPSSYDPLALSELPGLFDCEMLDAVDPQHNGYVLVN

N#CC1(c2ccccn2)CCN(Cc2cc(C(=O)N3CCCC3)c(=O)n3ccccc23)CC1
inactive: residual activity [1] 85% | residual activity [2] 76% | residual activity [3] 99% | residual activity [4] 95% | residual activity [5] 92% | residual activity [6] 80% | residual activity [7] 98% | inhibition [8] -2.01% | residual activity [9] 100% | residual activity [10] 88% | residual activity [11] 97% | residual activity [12] 87% | residual activity [13] 87% | residual activity [14] 100% | residual activity [15] 86% | residual activity [16] 100% | residual activity [17] 100% | residual activity [18] 84% | residual activity [19] 74% | residual activity [20] 88% | residual activity [21] 81% | residual activity [22] 100% | residual activity [23] 100% | residual activity [24] 100% | residual activity [25] 100% | residual activity [26] 99% | residual activity [27] 100% | residual activity [28] 88% | residual activity [29] 100% | residual activity [30] 91% | residual activity [31] 100% | residual activity [32] 92% | residual activity [33] 93% | residual activity [34] 72% | residual activity [35] 100% | residual activity [36] 82% | residual activity [37] 82% | residual activity [38] 100%

N#CC1(c2ccccn2)CCN(Cc2cc(C(=O)O)c(=O)n3ccccc23)CC1 [MSD-M1PAM]
inactive: residual activity [1] 96% | residual activity [2] 97% | residual activity [3] 100% | residual activity [4] 100% | residual activity [5] 100% | residual activity [6] 75% | residual activity [7] 100% | inhibition [8] -1% | residual activity [9] 100% | residual activity [10] 100% | residual activity [11] 90% | residual activity [12] 100% | residual activity [13] 100% | residual activity [14] 73% | residual activity [15] 100% | residual activity [16] 100% | residual activity [17] 92% | residual activity [18] 100% | residual activity [19] 97% | residual activity [20] 88% | residual activity [21] 96% | residual activity [22] 100% | residual activity [23] 100% | residual activity [24] 100% | residual activity [25] 99% | residual activity [26] 100% | residual activity [27] 91% | residual activity [28] 89% | residual activity [29] 92% | residual activity [30] 76% | residual activity [31] 100% | residual activity [32] 100% | residual activity [33] 84% | residual activity [34] 93% | residual activity [35] 100% | residual activity [36] 96% | residual activity [37] 100% | residual activity [38] 86%

Reference: ChEMBL document CHEMBL4507295 (2021)
